Holding throughout (format): biochemical
Assay [1] has as its target T1, HIV protease (Human immunodeficiency virus type 1 group M subtype B, UniProt P04585).
T1 construct: The enzyme is composed of only 99 amino acids and evidently eliminates itself from the pol gene
The assay can be described thus: HIV protease inhibitor test with Ser-Phe-Asn-Phe-Opr-Gln-Ile as substrate. As to conditions: substrate Ser-Phe-Asn-Phe-Opr-Gln-Ile 2 mg/ml, HIV protease No. I (1:10), blank 33.62 %. As for the experimental part:
A) General procedure for testing inhibitors of HIV protease with Ser-Phe-Asn-Phe-Opr-Gln-Ile
2 mg of Ser-Phe-Asn-Phe-Opr-Gln-Ile are dissolved in 1 ml of MGTE15 buffer (possibly using ultrasound) and subsequently filtered through a sterile filter (0.45 μm).
2.5 times the desired molarity of the inhibitor per ml of solution are weighed in and dissolved in DMSO (10% of the final volume). The solution is diluted to the final volume with MGTE15 buffer and filtered through a sterile filter (0.45 μm).
5 μl of the HIV protease solution are diluted with MGTE25 buffer as required.
10 μl portions of the substrate solution are pipetted into test tubes (16×100) with screw caps. 10 μl of MGTE15 buffer which contains 10% DMSO are pipetted into the blank. 10 μl portions of the inhibitor solutions are added to the remaining test tubes. These samples are incubated at 37° C. for 5-10 minutes and then 5 μl of the protease solution are added to each. After reaction at 37° C. for 2 hours, 10 or 20 μl of each sample (depending on the sensitivity of the HPLC apparatus) are removed by pipette, placed in microvials and diluted with 120 μl of the HPLC solvent.
(§1) Solvent system: 80% 0.1 M phosphoric acid pH 2.5. 20% (w/w) acetonitrile
(§2) Column: Merck ®LICHROSORB RP18 (5 μm) 250×4
(§3) Column temperature: 42° C.
(§4) Detector parameters: 215 nm, 0.08 AUF, 18.2° C.
(§5) Analysis time: 11 minutes
The % content of the tetrapeptide peak relative to the tetrapeptide+heptapeptide total corresponds to the proportion cleaved.

The target of assay [2] is T1, HIV protease. The assay can be described thus: HIV protease kinetics: cleavage of peptide substrates followed by HPLC (Tab. 1-4). The conditions noted are these: substrate 4 mg/ml, HIV protease No. II (5 μl). How it is done:
e) Conditions for HPLC analysis:
as §1, §2, §3, §4, §5
Retention time of the substrate: 8.1 minutes
Retention time of the N-terminal tetrapeptide: 3.9 minutes
Under the conditions chosen here, the heptapeptides are separated from the N-terminal tetrapeptide produced in the enzymatic cleavage. The % content of the tetrapeptide peak relative to the tetrapeptide+heptapeptide total corresponds to the proportion cleaved.
B) Procedure for HIV protease kinetics (Tab. 1-4)
10 μl of substrate solution (2-4 mg/ml) in MGTE15 buffer and 10 μl of MGTE15 buffer which contains 10% dimethyl sulfoxide are combined and incubated at 37° C. for 5-10 minutes. 5 μl of the HIV protease solution in MGTE25 buffer are added to this, and the mixture is shaken at 37° C. […] The microliter syringe is used to load the total amount onto the HPLC column. HPLC conditions as in A).

Assay [3] has as its target T1, HIV protease. The assay can be described thus: HIV protease kinetics: comparison of the cleavage rate of several substrates (Tab. 6). As to conditions: substrate 2 mg/ml, HIV protease No. II (1:4). How it is done:
C) Procedure for the HIV protease kinetics (Tab. 6) 10 μl of substrate solution (2 mg/ml) in MGTEl5 buffer and 10 μl of MGTE15 buffer are combined and incubated at 37° C. for 5-10 minutes. 5 μl of HIV protease No. II (diluted 1:4 with MGTE25 buffer) are added to this, and the mixture is shaken at 37° C. Subsequent procedure as in B).
Column: Merck HIBAR ®LICHROSORB RP8 (7 μm) 250×4
Flow rate: 1 ml min for SFNFPQI and SFNFOQI 0.5 ml/min for […] and VSQNYOIVQ. Otherwise as in Ae).

Where a SMILES comes first, the peptide text is derived from it. [ ]: non-standard residue; d: D form. The star is where a group is joined. Sta = CC(C)C[C@H](N)[C@@H](O)CC(=O)O; Isovaleryl = CC(C)CC(=O)*

As for `CC(C)CC(=O)N[C@H](C(=O)N[C@H](C(=O)N[C@@H](CC(C)C)[C@@H](O)CC(=O)N[C@@H](C)C(=O)N[C@@H](CC(C)C)[C@@H](O)CC(=O)O)C(C)C)C(C)C` [Pepstatin A] (Isovaleryl-VV[Sta]A[Sta]-OH), the “Cleavage (%)” value came to 1.25% on HIV protease [1] (inhibitor 10^-4 M), 4.73% on HIV protease [1] (inhibitor 10^-5 M), 18.22% at HIV protease [1] (inhibitor 10^-6 M) and 25.09% on HIV protease [1] (inhibitor 10^-7 M).
On to “H-SFNFPQI-OH [SFNFPQI, H-Ser-Phe-Asn-Phe-Pro-Gln-Ile-OH]”, for which the “% cleavage after 5 minutes' cleavage time (text summary of Tab. 1 and 2)” value at HIV protease [2] (5 minutes, both experiments) is listed as “about 4%”. For the same molecule, the “% cleavage” value at HIV protease [2] (Experiment A, 5 min) was found to be 4.00%; at HIV protease [2] (Experiment A, 10 min) it was 8.19%; on HIV protease [2] (Experiment A, 20 min) it was 14.57%; on HIV protease [2] (Experiment A, 40 min) it was 23.40%; on HIV protease [2] (Experiment A, 80 min), 39.43%; at HIV protease [2] (Experiment A, 160 min), 58.39%. The “% cleavage” value was determined as 70.16% at HIV protease [2] (Experiment A, 320 min); 4.15% on HIV protease [2] (Experiment B, 5 min); 7.54% at HIV protease [2] (Experiment B, 10 min); 14.35% at HIV protease [2] (Experiment B, 20 min); 23.00% on HIV protease [2] (Experiment B, 40 min); 37.68% on HIV protease [2] (Experiment B, 80 min). In addition, the “% cleavage” value was 57.11% at HIV protease [2] (Experiment B, 160 min) and 72.51% at HIV protease [2] (Experiment B, 320 min). Moreover, the “% tetrapeptide = % cleavage” value at HIV protease [3] (5 min) is recorded as 0.25%; at HIV protease [3] (10 min), 4.68%; at HIV protease [3] (20 min), 7.01%; at HIV protease [3] (40 min), 11.34%; on HIV protease [3] (80 min), 19.50%; at HIV protease [3] (160 min), 34.19%. Also, the “% tetrapeptide = % cleavage” value on HIV protease [3] (320 min) was determined as 48.18%.
Consider “H-Val-Ser-Gln-Asn-Tyr-Opr-Ile-Val-Gln-OH [VSQNYOIVQ]”, for which the “% tetrapeptide = % cleavage” value at HIV protease [3] (5 min) came to 10.27%; at HIV protease [3] (10 min), 20.72%; on HIV protease [3] (20 min), 40.47%; at HIV protease [3] (40 min) it was 60.50%; on HIV protease [3] (80 min) it was 88.98%; at HIV protease [3] (160 min), 100.00%. Besides, on HIV protease [3] (320 min), the “% tetrapeptide = % cleavage” value was determined as 100.00%.
With H-VSQNYPIVQ-OH, the “% tetrapeptide = % cleavage” value at HIV protease [3] (5 min) was 3.66%; on HIV protease [3] (10 min), 6.53%; on HIV protease [3] (20 min) it was 11.31%; at HIV protease [3] (40 min), 20.32%; on HIV protease [3] (80 min) it was 31.49%; at HIV protease [3] (160 min), 55.00%. Besides, at HIV protease [3] (320 min), the “% tetrapeptide = % cleavage” value was 62.48%.
